Assay results as given in US20230203095A1, “BIOLOGICAL PEPTIDE FOR TREATING LUNG DISEASES AND APPLICATION THEREOF” (SHANGHAI INSTITUTE OF PHARMACEUTICAL INDUSTRY CO., LTD., priority 2019, published 2023).
Where two headings read alike, the source gives them in different places. Square brackets hold non-standard residues; d marks the D form. Peptide text beside a SMILES is read from it. * marks the point of attachment. X1 = CC(=O)N[C@H]1C(*)O[C@H](CO)[C@@H](O)[C@@H]1O

What was measured:
[1] = Stability of each 7-peptide compound in rat whole blood; type: in vitro ADME; settings: for stability in whole blood: compared with SP peptide; for recovery: read-out: Recovery rate (%) M±SD
Protocol: Preparation of the test product: SP and SIPI-D00 were dissolved and diluted with an appropriate amount of 50% acetonitrile water containing 0.1% formic acid to obtain a working solution with a concentration of 200 µg/mL.
• 1) Fresh rat whole blood was added to the EP tube, and shaken gently to mix well; • 2) The EP tube was pre-incubated in a 37° C. water bath for 5 minutes; • 3) Each compound was added to start the reaction and continued to incubate at 37° C.; • 4) 50 µL sample was taken from the sample tube at 0, 2 min, 5 min, 10 min, 30 min, and 60 min, respectively, into the stop tube, 50 µL of ice-cold 7% perchloric acid was added, and shaken to stop the reaction; • 5) Sample was centrifuged at 13000 r/min for 10 min, 75 µL supernatant was aspirated, 60 µL1.25% ammonia water was added and mixed well. After filtered with […] microporous membrane, 20 µL sample was taken for LC-MS/MS analysis.

[2] = system: OVA-induced asthma model mice; assay: Lung pathology (H&E) of OVA-induced asthma model mice; type: in vivo, BALB/c mice; settings: after 28 days
Protocol: (§1) The first batch: mice were divided into groups, 10 mice in each group, namely: blank control group (normal saline), model group (OVA, 20 ug/mouse), SP peptide group (administered dose of 175 µg/kg body weight/day, 350 µg/kg body weight/day, respectively), SIPI-D00 peptide group (administered dose of 175 µg/kg body weight/day, 350 µg/kg body weight/day), and dexamethasone group (administered dose of 2 mg/kg body weight/day).
(§2) Mice in the model group, SP peptide group, SIPI-D00 peptide group and dexamethasone group were sensitized by intraperitoneal injection of OVA (20 µg OVA/mice) on day 0, 7, and 14, and challenged by aerosol administration of OVA (once a day for 5 consecutive days) on day 21-25 to construct asthmatic model animals. Mice in the model group were given normal saline on days 21-28; mice in different doses of SP peptide group and SIPI-D00 peptide group were injected subcutaneously with different doses of SP and SIPI-D00 on days 19-28; mice in dexamethasone group were injected intraperitoneally with 2 mg/kg/day dexamethasone on days 21-28. At the same time, 10 mice in the blank control group were fed normally from day 0 to day 28 without any treatment, and were given normal saline as a blank control.
After 28 days, the mouse lung tissue was taken out, fixed in 4% formaldehyde, embedded in paraffin, sectioned, and stained with H&E for pathological observation.
as §1, with “ug/mice), and” for “ug/mouse),”, “SIPI-G5” for “SIPI-D00”, “weight/day),” for “weight/day), and”
(§3) At the same time, 10 mice in the blank control group were fed normally from day 0 to day 28 without any treatment, and were given normal saline as a blank control.

[3] = system: OVA-induced asthma model mice; assay: Lung function (inspiratory airway resistance, lung compliance) in OVA-induced allergic asthma model mice; type: in vivo, BALB/c mice; settings: for Inspiratory airway resistance / Lung compliance: n=10
Protocol: The second batch: mice were divided into groups, 10 mice in each group, namely: blank control group (normal saline), model group (OVA, dose of 20 ug/mouse), SP peptide group (administered dose of 87.5 µg/kg body weight/ day, 175 µg/kg body weight/day, 350 µg/kg body weight/day, respectively), SIPI-D00 peptide group (administered dose of 87.5 µg/kg body weight/day, 175 µg/kg body weight/day, 350 µg/kg body weight/day), and Dexamethasone group (administered dose of 2 mg/kg body weight/day).
as §2
On the 28th day, the mice were anesthetized with tracheal intubation and jugular vein intubation, and the inspiratory airway resistance and lung compliance were measured in each group of animals. Each animal was given fold increasing amounts of methacholine via the jugular vein: 0.025 mg/kg, 0.05 mg/kg, 0.1 mg/kg, 0.2 mg/kg. After each dose was given, the lung compliance curve was recorded continuously for 5 minutes, and the inspiratory airway resistance and lung compliance were calculated. […]
as §3

serum IgE = assay: Serum IgE level in OVA-induced allergic asthma model mice; type: in vivo, BALB/c mice; settings: for Serum IgE level (OD450): days 19-28, n=10
Protocol: as §1
OVA for sensitization was dissolved in sterile PBS solution at a final concentration of 0.2 mg/mL, then an equal volume of aluminum hydroxide adjuvant was added. After shaking for 30 minutes, each mouse was intraperitoneally injected with 0.2 mL (20 µg OVA per mouse).
2% OVA solution was prepared in sterile PBS. The 2% OVA was nebulized with a nebulizer, and the mice were placed in the nebulizer inhalation box for 30 minutes per day.
According to the dosage, SP peptide and SIPI-D00 were dissolved in normal saline respectively, and administered by subcutaneous administration on the back according to the body weight of the animals.
as §2
After 28 days, blood was collected from the inner canthus of the mouse, and the serum was collected, and the IgE level in the serum was measured with an ELISA kit. […]
as §3

[4] = rat whole blood, 37° C., 1000 ng/mL, incubation time 0 min
[5] = rat whole blood, 37° C., 1000 ng/mL, incubation time 2 min
[6] = rat whole blood, 37° C., 1000 ng/mL, incubation time 5 min
[7] = rat whole blood, 37° C., 1000 ng/mL, incubation time 10 min
[8] = rat whole blood, 37° C., 1000 ng/mL, incubation time 30 min
[9] = rat whole blood, 37° C., 1000 ng/mL, incubation time 60 min
[10] = 87.5 ug/kg/day s.c., methacholine 0 mg/kg
[11] = 87.5 ug/kg/day s.c., methacholine 0.025 mg/kg
[12] = 87.5 ug/kg/day s.c., methacholine 0.05 mg/kg
[13] = 87.5 ug/kg/day s.c., methacholine 0.1 mg/kg
[14] = 87.5 ug/kg/day s.c., methacholine 0.2 mg/kg
[15] = 175 ug/kg/day s.c., methacholine 0 mg/kg
[16] = 175 ug/kg/day s.c., methacholine 0.025 mg/kg
[17] = 175 ug/kg/day s.c., methacholine 0.05 mg/kg
[18] = 175 ug/kg/day s.c., methacholine 0.1 mg/kg
[19] = 175 ug/kg/day s.c., methacholine 0.2 mg/kg
[20] = 350 ug/kg/day s.c., methacholine 0 mg/kg
[21] = 350 ug/kg/day s.c., methacholine 0.025 mg/kg
[22] = 350 ug/kg/day s.c., methacholine 0.05 mg/kg
[23] = 350 ug/kg/day s.c., methacholine 0.1 mg/kg
[24] = 350 ug/kg/day s.c., methacholine 0.2 mg/kg

For `CC(=O)N[C@H]1C(OC[C@H](NC(=O)[C@@H](NC(=O)[C@H](Cc2ccc(O)cc2)NC(=O)[C@@H](NC(=O)[C@H](CCC(N)=O)NC(=O)CN)[C@@H](C)OC2O[C@H](CO)[C@@H](O)[C@H](O)[C@H]2NC(C)=O)[C@@H](C)O)C(=O)NCC(=O)O)O[C@H](CO)[C@@H](O)[C@@H]1O` (some centres unmarked) [SIPI-G9, GQT(Glc)YTS(Glc)G] (H-GQT(X1)YTS(X1)G-OH), the “stability in whole blood” value [1] was “significantly higher than that of SP peptide”, the recovery [1, 4] was 100% and the recovery [1, 5] was 98.8 ± 4.6%. The recovery [1, 6] was 98.3 ± 2.9%, the recovery [1, 7] was 96.3 ± 4.9% and the recovery [1, 8] was 95.9 ± 1%. For the same compound, the recovery [1, 9] was > 90%.
In the case of `C[C@H](O)[C@@H](NC(=O)[C@@H](Cc1ccc(O)cc1)NC(=O)[C@H](NC(=O)[C@@H](CO)NC(=O)CN)[C@H](C)O)C(=O)N[C@H](CCC(N)=O)C(=O)NCC(=O)O` [SIPI-D00, GSTYTQG] (H-G[dS][dT][dY][dT][dQ]G-OH), the “lung pathology, H&E” value ([2]; high-dose group (350 µg/kg body weight/day)) is reported as “less inflammatory cell infiltration and clear alveolar cavity”, the “lung pathology, H&E” value ([2]; low-dose group (175 µg/kg body weight/day)) is reported as “more inflammatory cells infiltrating in the lungs” and the “infiltration of inflammatory cells in the lungs, H&E” value ([2]; overall) is reported as “significantly reduce the infiltration of inflammatory cells”. For the same compound, the Inspiratory airway resistance [3, 10] was 1.00±0.00, the Lung compliance [3, 10] was 1.00±0.00 and the Inspiratory airway resistance [3, 11] was 1.32±0.32. For the same compound, the Lung compliance [3, 11] was 0.80±0.18, the Inspiratory airway resistance [3, 12] was 1.64±0.35 and the Lung compliance [3, 12] was 0.64±0.14. For the same compound, the Inspiratory airway resistance [3, 13] was 1.86±0.43, the Lung compliance [3, 13] was 0.57±0.13 and the Inspiratory airway resistance [3, 14] was 2.05±0.51. The Lung compliance [3, 14] was 0.52±0.13, the Inspiratory airway resistance [3, 15] was 1.00±0.00 and the Lung compliance [3, 15] was 1.00±0.00. The Inspiratory airway resistance [3, 16] was 1.21±0.15, the Lung compliance [3, 16] was 0.84±0.10 and the Inspiratory airway resistance [3, 17] was 1.35±0.18. It also gave a Lung compliance [3, 17] of 0.75±0.10, an Inspiratory airway resistance [3, 18] of 1.47±0.21 and a Lung compliance [3, 18] of 0.69±0.093. The Inspiratory airway resistance [3, 19] was 1.58±0.34, the Lung compliance [3, 19] was 0.65±0.12 and the Inspiratory airway resistance [3, 20] was 1.00±0.00. The Lung compliance [3, 20] was 1.00±0.00, the Inspiratory airway resistance [3, 21] was 1.28±0.30 and the Lung compliance [3, 21] was 0.83±0.14. The Inspiratory airway resistance [3, 22] was 1.43±0.35, the Lung compliance [3, 22] was 0.70±0.19 and the Inspiratory airway resistance [3, 23] was 1.61±0.47. It also gave a Lung compliance [3, 23] of 0.55±0.18, an Inspiratory airway resistance [3, 24] of 1.74±0.51 and a Lung compliance [3, 24] of 0.49±0.19. The “inspiratory phase resistance (in words)” value ([3]; compared with the model group) was “significantly decreased”, the “lung compliance (in words)” value ([3]; compared with the model group) was “significantly increased” and the “stability in whole blood” value [1] was “significantly higher than that of SP peptide”. The recovery [1, 4] was 100%, the recovery [1, 5] was 97.9 ± 7.4% and the recovery [1, 6] was 101 ± 10.7%. For the same compound, the recovery [1, 7] was 99.6 ± 1.3%, the recovery [1, 8] was 97.9 ± 2.5% and the “Recovery rate (%) M±SD” value [1, 9] was 103±3.9%. For the same compound, the recovery [1, 9] was 100%, the “Serum IgE level (OD450)” value (serum IgE; 175 ug/kg/day subcutaneous) was 0.421 ± 0.044 OD450 and the “Serum IgE level (OD450)” value (serum IgE; 350 ug/kg/day subcutaneous) was 0.279 ± 0.036 OD450. The “IgE level in the serum (in words)” value (serum IgE; compared with the model group and SP peptide group) was “significantly decreased”.
